The record followed here is US9163032B2, “Esters of DCPLA and methods of treatment using the same” (Blanchette Rockefeller Neurosciences Institute, priority 2011, dated 2015).

This assay concerns the target T1, PKC-ε (Homo sapiens, UniProt Q02156).
T1 sequence (Q02156 1-737): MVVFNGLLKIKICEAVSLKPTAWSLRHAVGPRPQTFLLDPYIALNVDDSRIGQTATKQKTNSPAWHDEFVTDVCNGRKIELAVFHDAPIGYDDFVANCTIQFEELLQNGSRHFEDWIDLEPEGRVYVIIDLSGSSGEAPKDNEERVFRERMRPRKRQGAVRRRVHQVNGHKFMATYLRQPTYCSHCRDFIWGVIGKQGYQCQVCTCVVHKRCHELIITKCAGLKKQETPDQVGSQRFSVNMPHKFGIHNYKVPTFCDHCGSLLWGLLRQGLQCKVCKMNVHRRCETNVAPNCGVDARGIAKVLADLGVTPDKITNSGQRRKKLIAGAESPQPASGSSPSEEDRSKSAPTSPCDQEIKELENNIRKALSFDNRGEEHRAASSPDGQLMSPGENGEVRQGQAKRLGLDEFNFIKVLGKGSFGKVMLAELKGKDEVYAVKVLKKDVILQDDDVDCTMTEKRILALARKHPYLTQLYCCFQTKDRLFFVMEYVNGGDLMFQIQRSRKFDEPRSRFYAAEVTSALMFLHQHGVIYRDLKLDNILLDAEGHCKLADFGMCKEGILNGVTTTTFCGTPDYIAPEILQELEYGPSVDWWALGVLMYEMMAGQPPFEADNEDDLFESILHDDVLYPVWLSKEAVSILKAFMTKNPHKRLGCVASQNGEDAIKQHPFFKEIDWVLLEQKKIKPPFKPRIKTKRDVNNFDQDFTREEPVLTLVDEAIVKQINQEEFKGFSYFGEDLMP
In words: PKC activation assay with purified PKC-ε isozyme (32P-phosphoprotein formation). Type of assay: biochemical. The method, then:
For measurement of PKC activation by DCPLA-ME, activation of recombinant PKC-α, PKC-ε, and PKC-δ was evaluated. DCPLA-ME induced activation was measured in the absence of diacylglycerol (DAG) and phosphatidylserine (PS) as described earlier. See Nelson, T. J. et al., J. Biol. Chem., 2009, 284: 34514-34521, and Kanno, T. et al., J. Cell Physiol., 2009, 221: 183-188. Individual enzymes were incubated for 15 min at 37° C. in the presence of 10 μM histones, 4.89 mM CaCl2, 10 mM MgCl2, 20 mM HEPES (pH 7.4), 0.8 mM EDTA, 4 mM EGTA, 4% glycerol, 8 μg/ml aprotinin, 8 μg/ml leupeptin, 2 mM benzamidine, and 0.5 μCi of [γ-^32P]ATP. Purified PKC-α, PKC-ε and PKC-δ were preincubated with DCPLA-ME for 5 min at room temperature. [^32P]-Phosphoprotein formation was measured by adsorption onto phosphocellulose.
To measure PKC, 10 μl of cell homogenate or purified PKC isozyme was incubated for 15 min at 37° C. in the presence of 10 μM histones, 4.89 mM CaCl2, 1.2 μg/μl phosphatidyl-L-serine, 0.18 μg/μl 1,2-dioctanoyl-sn-glycerol, 10 mM MgCl2, 20 mM HEPES (pH 7.4), 0.8 mM EDTA, 4 mM EGTA, 4% glycerol, 8 μg/ml aprotinin, 8 μg/ml leupeptin, and 2 mM benzamidine. [γ32P]ATP (0.5 μCi) was added and 32P-phosphoprotein formation was measured by adsorption onto phosphocellulose as described previously. See Nelson et al., J. Neurochemistry, 1995, 65: 2350-2357.
PKC activity of each compound was measured in the absence of diacylglycerol and phosphatidyl-L-serine and PKC-δ and PKC-ε were measured in the absence of added EGTA and CaCl2, as described by Kanno et al., J. Lipid Res., 2006, 47: 1146-1156. Low concentrations of Ca^2+ are needed because high Ca^2+ interacts with the PKC phosphatidylserine binding site and prevents activation. […] To determine their PKC isozyme specificity, the compounds were pre-incubated with purified isoforms of PKC for five minutes and the PKC activity was measured radiometrically.
The activation and PKC isozyme specificity of DCPLA-ethyl ester was measured following the procedures in Example 1(B) and (C), except that 9 ng of the purified isozyme was used and it was pre-incubated for 5 minutes at room temperature (FIG. 3). PKC-ε activation by DCPLA-tert-butyl ester and DCPLA-retinyl ester was measured in the same manner as DCPLA-ethyl ester (FIG. 3).
The EC50 values, PKC specificity, and activation for a select number of DCPLA esters was determined (see Table 1). EC50 values were determined by measuring the lowest concentration that activates by 50% of maximum activation. […] The specificity and activation of PKC by the various esters of DCPLA were determined from the measurements of activation of PKC isozymes.

Turning to `CCCCCC1CC1CC1CC1CCCCCCCC(=O)OC` (stereo not drawn) [DCPLA-ME, DCPLA methyl ester], the Emax (commonly the greatest response seen or fitted, relative to the assay's reference) (% of control of PKCε at maximum) worked out at 195%. The “Specificity ε/α” value (Activation of PKC-ε ÷ activation or inhibition of PKCα at 3xEC50) is reported as 12.1. Also, the “PKC isozyme specificity” value (PKC-ε vs PKC-α and PKC-δ) was “relatively specific for PKC-ε”. Besides, the PKC-ε activation entry (in a range of 0.01-10 μM) is recorded as “more than 50%”. In addition, under “lowest concentration that activates by 50% of maximum activation”, the EC50 – broadly, the concentration that produces a half-maximal response – was determined as 3 nM. Further, the “PKC-ε activation at its peak” value (maximum, FIG. 1, 2, 4) is on record as “up to 190 % of control”.
